Converted amounts (≈) assume the structure as drawn. Non-standard residues stand in square brackets, D forms with d. Residues, ends and D or L forms follow the SMILES beside them. Dab = NCC[C@H](N)C(=O)O

The subject of one assay is MCF-12F cells. The assay is described as follows: MTT antiproliferative assay, MCF-12F. It is filed as cell-based, human. As to conditions: 72 h, non-tumorigenic cell line, read-out: Mean IC50 ± SD, MCF-12F. As to the method: (§1) The cell lines BALB 3T3 (mouse embryonic fibroblasts) and MCF-12F (human breast epithelial cells) were used as models for healthy tissue. The MCF-7 and MDA-MB-231 cell lines were used as in vitro models for luminal A- and basal B-type breast cancer, respectively. Cell lines were obtained from the American Type Cultures Collection (ATCC, Manassas, VA, USA). Cells were cultured in Dulbecco modified Eagle’s medium (DMEM) supplemented with 10% fetal bovine serum (FBS), 100 U/mL penicillin, and 0.1 mg/mL streptomycin (Sigma-Aldrich, Schnelldorf, Germany) in an incubator at 37 °C, 5% CO2 and 95% humidity. Plastic flasks 75 cm^2 (Biologix, Lenexa, KS, USA) were used to grow the cells.
(§2) The antiproliferative activity testing was performed on cell cultures using the MTT-dye reduction assay. This assay is based on the metabolism of MTT to insoluble formazan by mitochondrial reductases. The formazan concentration can be determined spectrophotometrically. The measured absorption is an indicator of cell viability. Cell lines (MCF-12F, MCF-7 and MDA-MB-231) were used in the experiments. Cells were plated at a density of 1 × 10^3 cells/100 µL in each well of 96-well microplates and allowed to adhere for 24 h before treatment with test compounds. A concentration range from 4 to 1000 μM was applied for 72 h. The formazan absorption was registered using a microplate reader at λ = 540 nm. Antiproliferative activities were expressed as IC50 values (concentrations required for 50% inhibition of cell growth).

The next assay concerns MDA-MB-231 cells. The assay is described as follows: MTT antiproliferative assay, MDA-MB-231. Particulars: for IC50: MTT, 72 h, read-out: Mean IC50 ± SD, MDA-MB-231; for SI (Selectivity Index), MDA-MB-231: SI = IC50 MCF-12F/IC50 tumor cells. It is filed as cell-based, human. Here is the method:
as §1, §2

In the next assay the test system is MCF-7 cells. The assay is described as follows: MTT antiproliferative assay, MCF-7. The assay is classed as cell-based, human. As to conditions: for IC50: MTT, 72 h, read-out: Mean IC50 ± SD, MCF-7; for SI (Selectivity Index), MCF-7: SI = IC50 MCF-12F/IC50 tumor cells. Here is the method: as §1, §2
For orientation: Formazan colour is commonly taken as a measure of viable cells.

The subject of assay [1] is Pseudomonas aeruginosa NBIMCC 3700. The assay is classed as cell-based. Particulars: broth dilution, 0 to 320 µg/mL, 24 h; NI = no inhibition monitored. (In general: In broth dilution the organism is exposed to a series of concentrations in liquid medium.)
Assay [2] relates to Candida albicans NBIMCC 74. The assay is classed as cell-based. As to conditions: broth dilution, 0 to 320 µg/mL, 24 h; NI = no inhibition monitored.

As for `CC[C@H](C)[C@H](NC(=O)CNC(=O)[C@H](CO)NC(=O)[C@H](CC(C)C)NC(=O)[C@@H](NC(=O)[C@H](CCN)NC(=O)CNC(=O)[C@@H](NC(=O)[C@H](CC(C)C)NC(=O)[C@@H]1CCCN1C(=O)[C@H](CC(C)C)NC(=O)[C@@H](N)Cc1ccccc1)[C@@H](C)CC)C(C)C)C(=O)N[C@@H](CC(C)C)C(N)=O` [DTDab, FLPLIG-Dab-VLSGIL-NH2] (H-FLPLIG[Dab]VLSGIL-NH2; N-terminus assumed), the IC50 in the assay with MCF-12F cells was found to be 280 ± 13.6 µM; in the assay on MDA-MB-231 cells it was 174.9 ± 1.35 µM; in the assay on MCF-7 cells, 157 ± 4.97 µM. In the assay with MDA-MB-231 cells, the “SI (Selectivity Index), MDA-MB-231” value came out at 1.60. Besides, in the assay with MCF-7 cells, the “SI (Selectivity Index), MCF-7” value came to 1.78. Moreover, the “MIC, P. aeruginosa 3700” value in assay [1] is given as 320 µg/mL (≈ 239 µM).
For `CC[C@H](C)[C@H](NC(=O)CNC(=O)[C@H](CO)NC(=O)[C@H](CC(C)C)NC(=O)[C@@H](NC(=O)[C@H](CCCCN)NC(=O)CNC(=O)[C@@H](NC(=O)[C@H](CC(C)C)NC(=O)[C@@H]1CCCN1C(=O)[C@H](CC(C)C)NC(=O)[C@@H](N)Cc1ccccc1)[C@@H](C)CC)C(C)C)C(=O)N[C@@H](CC(C)C)C(N)=O` [DTF, FLPLIG-K-VLSGIL-NH2, reference compound] (H-FLPLIGKVLSGIL-NH2), the IC50 in the assay on MCF-12F cells came to 100 ± 3.3 µM. In addition, in the assay on MDA-MB-231 cells, the IC50 is 77 ± 2.92 µM and the “SI (Selectivity Index), MDA-MB-231” value amounted to 1.30. Also, in the assay with MCF-7 cells, the IC50 was 49.8 ± 1.9 µM and the “SI (Selectivity Index), MCF-7” value is recorded as 2.02. Besides, the “MIC, P. aeruginosa 3700” value in assay [1] came out at 160 µg/mL (≈ 117 µM). In assay [2], the “MIC, C. albicans 74” value is reported as 320 µg/mL (≈ 234 µM).

As usually defined, the IC50 is the concentration that inhibits the measured activity by half.
